From US9139577B2, “Sulfoximine substituted quinazolines for pharmaceutical compositions” (Boehringer Ingelheim International GmbH, priority 2013, dated 2015) come the findings set out here.

Assay [1] addresses MNK2a (Homo sapiens (Human), UniProt Q9HBH9). Description: MNK2a in vitro kinase assay (Assay 2), ADP-Glo. The note with it: read-out: MNK2 IC50. The assay is classed as biochemical. (In general: ADP-Glo first removes unused ATP, then detects ADP through luciferase.)
Assay [2] concerns the target MNK1 (Homo sapiens (Human), UniProt Q9BUB5). As to the kind of experiment: MNK1 in vitro kinase assay (Assay 3), Z'-LYTE. The following applies: for inhibition at 1 µM: compound concentration of 1 μM, read-out: MNK1 % INH. It counts as biochemical. The method, boiled down:
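Pre-activated GST-MNK1a phosphorylated a FRET peptide for 60 min at room temperature in HEPES pH 7.5 buffer with Mg2+/Mn2+, EGTA and DTT, with 1% DMSO final. Protease development followed for 60 min.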

MNK1, sequence (Q9BUB5 other isoform, or with tags, fused parts or gaps): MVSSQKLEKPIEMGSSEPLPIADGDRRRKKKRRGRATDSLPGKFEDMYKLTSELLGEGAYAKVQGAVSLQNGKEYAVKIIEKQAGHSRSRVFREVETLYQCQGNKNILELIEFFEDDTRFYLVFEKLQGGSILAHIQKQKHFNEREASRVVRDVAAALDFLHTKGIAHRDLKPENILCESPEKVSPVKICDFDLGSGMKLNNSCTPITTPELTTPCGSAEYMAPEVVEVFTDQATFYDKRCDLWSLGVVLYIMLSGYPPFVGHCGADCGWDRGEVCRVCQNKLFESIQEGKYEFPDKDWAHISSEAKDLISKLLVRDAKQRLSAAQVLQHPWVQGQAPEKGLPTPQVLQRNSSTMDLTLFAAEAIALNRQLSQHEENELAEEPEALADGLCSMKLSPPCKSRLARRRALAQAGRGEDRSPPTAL
MNK2a, sequence (Q9HBH9 whole entry): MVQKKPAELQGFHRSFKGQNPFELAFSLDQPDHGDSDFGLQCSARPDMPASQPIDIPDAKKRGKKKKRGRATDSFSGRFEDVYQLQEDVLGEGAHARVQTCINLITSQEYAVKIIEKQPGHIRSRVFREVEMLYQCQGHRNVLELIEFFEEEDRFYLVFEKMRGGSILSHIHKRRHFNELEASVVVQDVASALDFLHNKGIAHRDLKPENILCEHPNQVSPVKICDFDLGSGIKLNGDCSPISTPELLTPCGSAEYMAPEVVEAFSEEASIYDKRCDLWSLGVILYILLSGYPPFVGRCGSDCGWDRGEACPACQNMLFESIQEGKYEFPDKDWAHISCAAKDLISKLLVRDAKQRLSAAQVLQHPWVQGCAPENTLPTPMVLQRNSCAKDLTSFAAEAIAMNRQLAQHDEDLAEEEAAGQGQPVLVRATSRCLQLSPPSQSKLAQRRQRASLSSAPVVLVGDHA

In general, IC50 refers to the concentration that inhibits the measured activity by half. Turning to `Cc1cc(N=S(C)(C)=O)cc2ncnc(Nc3ccc(F)cc3O[C@H](C)C(=O)NC(C(F)(F)F)C(F)(F)F)c12` [Example 3.054], the IC50 in assay [1] was determined as 1 nM; in assay [2], 51 nM. Also, the inhibition at 1 µM in assay [2] is 58%.

In the case of `Cc1cc(N=S2(=O)CCCC2)cc2ncnc(Nc3ccc(F)cc3O[C@H](C)C(=O)NCC3CCCO3)c12` (stereo partly shown) [Example 4.001], the IC50 in assay [1] came out at 5 nM. Besides, the inhibition at 1 µM in assay [2] came to 97%.

Take `Cc1cc(N=S(C)(C)=O)cc2ncnc(Nc3ccc(F)cc3O[C@H](C)C(=O)N(C)C)c12` [Example 4.002]: the IC50 in assay [1] was 5 nM. Further, the inhibition at 1 µM in assay [2] worked out at 54%.

`Cc1cc(N=S2(=O)CCCC2)cc2ncnc(Nc3ccc(F)cc3O[C@H](C)C(=O)N(C)C(C)C)c12` [Example 4.003]: in assay [1], the IC50 is 2 nM. Besides, the inhibition at 1 µM in assay [2] stood at 96%.

For the compound `Cc1cc(N=S(C)(C)=O)cc2ncnc(Nc3ccc(F)cc3O[C@H](C)C(=O)N3CCC(O)C3)c12` (stereo partly shown) [Example 4.005], the IC50 in assay [1] is 28 nM. In assay [2], the inhibition at 1 µM amounted to 74%.

Consider `Cc1cc(N=S2(=O)CCCC2)cc2ncnc(Nc3ccc(F)cc3O[C@H](C)C(=O)NCC(C)O)c12` (stereo partly shown) [Example 4.008], for which the IC50 in assay [1] came to 2 nM. For the same compound, in assay [2], the inhibition at 1 µM is 97%.

For `Cc1cc(N=S(C)(C)=O)cc2ncnc(Nc3ccc(F)cc3O[C@H](C)C(=O)NC3COC3)c12` [Example 4.009], the half-inhibitory concentration (IC50) in assay [1] turned out to be 2 nM. In assay [2], the inhibition at 1 µM came to 99%.

Regarding `Cc1cc(N=S2(=O)CCCC2)cc2ncnc(Nc3ccc(F)cc3O[C@H](C)C(=O)N3CCC(O)C3)c12` (stereo partly shown) [Example 4.010], in assay [1], the IC50 came out at 4 nM. For the same compound, in assay [2], the inhibition at 1 µM worked out at 89%.

On to `Cc1cc(N=S(C)(C)=O)cc2ncnc(Nc3ccc(F)cc3O[C@H](C)C(=O)NCC3CCCO3)c12` (stereo partly shown) [Example 4.011], for which, in assay [1], the half-inhibitory concentration (IC50) amounted to 24 nM. Moreover, the inhibition at 1 µM in assay [2] was found to be 86%.

Regarding `Cc1cc(N=S(C)(C)=O)cc2ncnc(Nc3ccc(F)cc3O[C@H](C)C(=O)N(C)Cc3ccccc3)c12` [Example 4.012], the IC50 in assay [1] is 34 nM. In addition, the inhibition at 1 µM in assay [2] was 56%.

For the compound `Cc1cc(N=S(C)(C)=O)cc2ncnc(Nc3ccc(F)cc3O[C@H](C)C(=O)N(C)CC(C)C)c12` [Example 4.013], the IC50 in assay [1] is 5 nM. Besides, the inhibition at 1 µM in assay [2] is 88%.

On to `Cc1cc(N=S2(=O)CCCC2)cc2ncnc(Nc3ccc(F)cc3O[C@H](C)C(=O)NC3CCOCC3)c12` [Example 4.014], for which the IC50 in assay [1] was 3 nM. In addition, in assay [2], the inhibition at 1 µM was found to be 96%.

Turning to `Cc1cc(N=S2(=O)CCCC2)cc2ncnc(Nc3ccc(F)cc3O[C@H](C)C(=O)NC3CCC3)c12` [Example 4.015], the IC50 in assay [1] worked out at 2 nM. Also, in assay [2], the inhibition at 1 µM was 102%.

With `Cc1cc(N=S2(=O)CCCC2)cc2ncnc(Nc3ccc(F)cc3O[C@H](C)C(=O)N(C)Cc3ccccc3)c12` [Example 4.017], the IC50 in assay [1] came out at 9 nM. Besides, the inhibition at 1 µM in assay [2] was determined as 73%.

With `C#CCNC(=O)[C@@H](C)Oc1cc(F)ccc1Nc1ncnc2cc(N=S(C)(C)=O)cc(C)c12` [Example 4.018], the IC50 in assay [1] was determined as 4 nM. The inhibition at 1 µM in assay [2] came to 99%.

For `Cc1cc(N=S(C)(C)=O)cc2ncnc(Nc3ccc(F)cc3O[C@H](C)C(=O)NC3CCOCC3)c12` [Example 4.019], in assay [1], the 50% inhibitory concentration (IC50) came to 6 nM. The inhibition at 1 µM in assay [2] is 92%.

Take `Cc1cc(N=S(C)(C)=O)cc2ncnc(Nc3ccc(F)cc3O[C@H](C)C(=O)NCC(C)O)c12` (stereo partly shown) [Example 4.020]: in assay [1], the IC50 came out at 4 nM. Moreover, in assay [2], the inhibition at 1 µM worked out at 98%.

For `COCC(C)NC(=O)[C@@H](C)Oc1cc(F)ccc1Nc1ncnc2cc(N=S(C)(C)=O)cc(C)c12` (stereo partly shown) [Example 4.021], in assay [1], the IC50 is 12 nM. Moreover, the inhibition at 1 µM in assay [2] is 92%.

Consider `Cc1cc(N=S(C)(C)=O)cc2ncnc(Nc3ccc(F)cc3O[C@H](C)C(=O)N=S(C)(C)=O)c12` [Example 4.022], for which the IC50 in assay [1] came to 10 nM. Also, in assay [2], the inhibition at 1 µM came out at 85%.

For `Cc1cc(N=S(C)(C)=O)cc2ncnc(Nc3ccc(F)cc3O[C@H](C)C(=O)NC3CCC3)c12` [Example 4.023], the IC50 in assay [1] was 5 nM. For the same compound, the inhibition at 1 µM in assay [2] amounted to 99%.

For `C#CCNC(=O)[C@@H](C)Oc1cc(F)ccc1Nc1ncnc2cc(N=S3(=O)CCCC3)cc(C)c12` [Example 4.027], the IC50 in assay [1] stood at 1 nM. The inhibition at 1 µM in assay [2] was determined as 99%.

As for `Cc1cc(N=S2(=O)CCCC2)cc2ncnc(Nc3ccc(F)cc3O[C@H](C)C(=O)N(C)CCO)c12` [Example 4.028], the concentration for half-maximal inhibition (IC50) in assay [1] was determined as 4 nM. The inhibition at 1 µM in assay [2] came out at 86%.

On to `Cc1cc(N=S(C)(C)=O)cc2ncnc(Nc3ccc(F)cc3O[C@H](C)C(=O)NCCO)c12` [Example 4.029], for which, in assay [1], the IC50 is 3 nM. Further, the inhibition at 1 µM in assay [2] amounted to 99%.

`CCN(CC)C(=O)[C@@H](C)Oc1cc(F)ccc1Nc1ncnc2cc(N=S(C)(C)=O)cc(C)c12` [Example 4.031]: the IC50 in assay [1] came out at 8 nM. The inhibition at 1 µM in assay [2] is 78%.

Regarding `CCNC(=O)[C@@H](C)Oc1cc(F)ccc1Nc1ncnc2cc(N=S(C)(C)=O)cc(C)c12` [Example 4.034], the IC50 in assay [1] was 3 nM; in assay [2], 51 nM.

As to `COCCNC(=O)[C@@H](C)Oc1cc(F)ccc1Nc1ncnc2cc(N=S(C)(C)=O)cc(C)c12` [Example 4.035], the IC50 in assay [1] came to 66 nM. Further, the inhibition at 1 µM in assay [2] worked out at 87%.

Consider `Cc1cc(N=S(C)(C)=O)cc2ncnc(Nc3ccc(F)cc3O[C@H](C)C(=O)N[C@@H]3CCC[C@@H]3O)c12` [Example 4.038], for which, in assay [1], the IC50 is 27 nM. In addition, the inhibition at 1 µM in assay [2] is 78%.

In the case of `COCC(C)NC(=O)[C@@H](C)Oc1cc(F)ccc1Nc1ncnc2cc(N=S3(=O)CCCC3)cc(C)c12` (stereo partly shown) [Example 4.040], the IC50 in assay [1] came out at 2 nM. The inhibition at 1 µM in assay [2] was found to be 97%.

As for `COCCN(C)C(=O)[C@@H](C)Oc1cc(F)ccc1Nc1ncnc2cc(N=S3(=O)CCCC3)cc(C)c12` [Example 4.041], the IC50 in assay [1] was determined as 7 nM. In assay [2], the inhibition at 1 µM is 82%.

With `Cc1cc(N=S2(=O)CCCC2)cc2ncnc(Nc3ccc(F)cc3O[C@H](C)C(=O)NC(C)C)c12` [Example 4.042], in assay [1], the IC50 amounted to 1 nM. Besides, the inhibition at 1 µM in assay [2] came to 97%.

Turning to `CC#CCNC(=O)[C@@H](C)Oc1cc(F)ccc1Nc1ncnc2cc(N=S3(=O)CCCC3)cc(C)c12` [Example 4.044], in assay [1], the IC50 was 3 nM. For the same compound, the inhibition at 1 µM in assay [2] came to 96%.

Regarding `Cc1cc(N=S(C)(C)=O)cc2ncnc(Nc3ccc(F)cc3O[C@H](C)C(=O)N[C@H]3CCOC3)c12` [Example 4.045], the IC50 in assay [1] was found to be 3 nM. Besides, in assay [2], the inhibition at 1 µM came to 99%.

For `Cc1cc(N=S2(=O)CCCC2)cc2ncnc(Nc3ccc(F)cc3O[C@H](C)C(N)=O)c12` [Example 4.047], the IC50 in assay [1] is 5 nM. The inhibition at 1 µM in assay [2] stood at 86%.

As to `CCC(C)NC(=O)[C@@H](C)Oc1cc(F)ccc1Nc1ncnc2cc(N=S(C)(C)=O)cc(C)c12` (stereo partly shown) [Example 4.048], the IC50 in assay [1] was 2 nM. For the same compound, the inhibition at 1 µM in assay [2] was 98%.

For the compound `CCC(C)NC(=O)[C@@H](C)Oc1cc(F)ccc1Nc1ncnc2cc(N=S3(=O)CCCC3)cc(C)c12` (stereo partly shown) [Example 4.050], the IC50 in assay [1] worked out at 1 nM. In addition, the inhibition at 1 µM in assay [2] was 100%.

In the case of `Cc1cc(N=S2(=O)CCCC2)cc2ncnc(Nc3ccc(F)cc3O[C@H](C)C(=O)N(C)C)c12` [Example 4.051], in assay [1], the IC50 was found to be 5 nM. Moreover, in assay [2], the inhibition at 1 µM is 82%.
